Measured values published in US12251449B2, “Synthetic multidomain peptide biomaterials that inhibit inducible nitric oxide synthase” (William Marsh Rice University, priority 2019, dated 2025).
Values joined by “and” are separate entries in the source; they are usually repeats but may differ in a detail not shown here. Equal values may be shown once. “Also recorded” adds a separate entry of the source. *1 amine or outer side, *2 acyl side, *3 side chain or, on linkers, in order; H or OH if unused. Where a SMILES comes first, the peptide text is derived from it. [ ]: non-standard residue; d: D form. X1 = CC(=N)NCCCC[C@H](N[*:1])C(=O)[*:2]

Key:
MOC1 cells = experiment: Live-dead viability of MOC1 cells on L-NIL-MDP hydrogel; type: cell-based, mouse; conditions: cultured on hydrogel over 7 days
Procedure: Cell culture. The murine oral cancer cell line, MOC1 was provided by Dr. Ravindra Uppaluri (Dana-Farber Cancer Institute, Harvard University, Boston, MA) and maintained as previously described (Judd et al., 2012). For in vitro experiments, mouse MOC1 cells were cultured at 37° C. with 5% CO2 in media routinely used for maintaining this cell line (Judd et al., 2012). For live-dead viability studies done using 2-D culture, peptide hydrogel 70 μL in volume (thickness approximately 1.75 mm) were pipetted into the wells of Lab-Tek 16 well chamber slides (Thermo Fisher, Rochester, NY). The gels were pipetted carefully into the bottom of the wells, and the plates were gently tapped down onto the bench top before shear recovery to flatten the pipetted gels and facilitate uniform spreading of the material. After pipetting, time was allowed for the samples to shear recover (5-10 min) before the addition of 200 μL cell media and 5,000 MOC1 cells. Each time point (days 1, 3, 7) had separate slides prepared with duplicate gels. Cell media was replaced every 2 days, carefully pipetting to avoid dislodging the gel material. […] Image processing was done with NIS Elements (Nikon Instruments, Melville, NY), and Imaris Cell Counting software (Bitplane, Concord, MA) was used to quantify live-dead percentages.

[1] = Oscillatory rheology of peptide hydrogels; type: physicochemical; conditions: hydrogel at 1 wt. % in HBSS with sucrose
Procedure: Oscillatory rheology. Peptide hydrogels were analyzed for their mechanical properties by oscillatory rheology using a TA Instruments AR-G2 rheometer (TA Instruments, New Castle, DE). Samples of 150 μL of 1 wt. % MDP hydrogels were prepared 24 hours prior to use for rheology, to allow full equilibration of the material. Gel samples were then transferred from a cut syringe onto the rheometer stage equipped with a 12 mm stainless-steel parallel plate set to a […] gap height. The following program was used to monitor the storage modulus (G′) and loss modulus (G″) under various conditions as has been previously published (Li & Hartgerink, 2017). Strain sweep analysis was performed using an applied strain of 0.01-200% at a frequency of 1 rad/s. Frequency sweep analysis was performed under 1% strain at 0.1-100 rad/s. Shear recovery analysis was performed by subjecting the peptide sample to 1% strain for 20 min, then 200% for 1 min, and finally 1% for 20 min, allowing for disruption of the hydrogel and monitoring of G′ and G″ recovery.

B16-F0 melanoma tumors = experiment: Tumor growth in the B16-F0 melanoma model; type: in vivo, mice; conditions: monotherapy, single intratumoral injection
Procedure: Evaluation of in vivo VEGF reduction using murine B16-F0 melanoma tumor model. C57BL/6J male mice were purchased from The Jackson Laboratory. Tumor inoculation was performed when mice reached 10-14 weeks of age. All experiments were performed with approval of IACUC at Baylor College of Medicine (BCM) and followed established protocols. B16-F0 melanoma cell line was purchased from American Type Culture Collection (ATCC) and maintained according to manufacturer instructions (DMEM high-glucose with 10% fetal bovine serum and 1% penicillin/streptomycin). C57BL/6J mice were injected subcutaneously (s.c.) with 3×10^5 B16-F0 cells in a single flank. Once tumors became palpable (day 7 post-inoculation) mice were injected intratumorally (i.t.) with either vehicle buffer control Hank's Balanced Salt Solution (HBSS), free L-NIL dissolved in HBSS at 20 mM, K2-MDP hydrogel at 1 wt. % (5.6 mM peptide), or L-NIL-MDP hydrogel at 1 wt. % (5.2 mM peptide, or approximately 20 mM L-NIL functional groups). All injections were done using 100 μL total injection volume.

[2] = prior studies (Leach et al., 2019); cited from earlier work
iNOS = experiment: Anti-nitrotyrosine immunostaining of subcutaneously injected hydrogels; type: in vivo, mice; conditions: subcutaneous implants, 3 and 7 days post injection
Procedure: (§1) Subcutaneous experiments and histology. C57BL/6J female mice were purchased from The Jackson Laboratory at age 8-12 weeks for subcutaneous characterization experiments. Mice were housed under specific pathogen-free conditions in standard temperature and lighting conditions with free access to food and water, and experiments were conducted with approval of the Institutional Animal Care and Use Committee (IACUC) at Rice University and according to NIH guidelines. Mice were injected with 100 μL MDP hydrogels in each of four separate sites in the subcutaneous space of the dorsal flank after the skin was shaved and sterilized with alcohol. At days 3, 7, 14, and 21 the mice were euthanized and the dorsal skin around the entire implant was removed, fixed overnight in 10% neutral buffered formalin, processed and paraffin embedded, and finally sectioned at […] thickness for staining using standard Masson's trichrome or hematoxylin and eosin (H&E) procedures, as well as immunohistochemical analyses (e.g., anti-nitrotyrosine IHC, or α-SMA blood vessel analysis).
Immunohistochemistry staining was performed on hydrogel implant tissue sections to further study in vivo properties of the L-NIL-MDP compared to related cationic MDPs. Anti-nitrotyrosine immunostaining was used to assess relative levels of nitrosylation of tyrosine within and around the subcutaneously injected hydrogel implants as a marker of iNOS inhibition (FIGS. 7A-H). It is known that the formation of nitric oxide (NO) and other nitrogen oxides in vivo can lead to observable post-translation modifications of peptides and proteins (Ischiropoulos, 2003). For example, surface-exposed 3-nitrotyrosine can be used as a marker of cell or tissue inflammation and damage by reactive nitrogen and oxygen species such as NO (Ahsan, 2013). The higher the local levels of iNOS activity, the greater should be the density of nitrosylated tyrosine. Therefore, visualization of nitrotyrosine levels by targeted antibodies can serve as a general indication of in vivo iNOS activity, or in the case of the L-NIL-MDP, local iNOS inhibition.

[3] = Subcutaneous hydrogel implants, histology (persistence, degradation, host response); type: in vivo, mice; conditions: 3-21 days
Procedure: as §1
Evaluation of material biocompatibility, degradation, and immune response profile in vivo was performed by histological analysis of hydrogel implants injected subcutaneously in healthy mice. […]

## CC(=N)NCCCC[C@H](NC(=O)[C@H](CCCCNC(C)=N)NC(=O)[C@H](CC(C)C)NC(=O)[C@H](CO)NC(=O)[C@H](CC(C)C)NC(=O)[C@H](CO)NC(=O)[C@H](CC(C)C)NC(=O)[C@H](CO)NC(=O)[C@H](CC(C)C)NC(=O)[C@H](CO)NC(=O)[C@H](CC(C)C)NC(=O)[C@H](CO)NC(=O)[C@H](CC(C)C)NC(=O)[C@H](CO)NC(=O)[C@H](CCCCNC(C)=N)NC(=O)[C@H](CCCCNC(C)=N)NC(C)=O)C(N)=O [L-NIL-MDP] (Ac-[X1][X1]SLSLSLSLSLSL[X1][X1]-NH2)
MOC1 cells
  viability of MOC1 cells (in words): high viability
[1]
  loss modulus (G″): 20-25 Pa and ~25 Pa
  storage modulus (G′): 260-300 Pa and ~300 Pa
B16-F0 melanoma tumors
  tumor growth reduction (in words): no favorable effect on tumor growth reduction
[2]
  hydrogel observable post injection: 21 days
iNOS
  nitrotyrosine staining intensity (in words): significantly lower; also recorded: lowest degree of nitrotyrosine staining
[3]
  inflammatory reaction after injection (in words): does not cause a chronic inflammatory reaction
